Measured values: US11186589B2, “Cyanoindoline derivatives as NIK inhibitors” (Janssen Pharmaceutica NV, priority 2016, dated 2021)
Like-named read-outs stand apart in the source and are kept apart here.

Assays:
[1] = molecular target: NIK/MAP3K14 (Homo sapiens (Human), UniProt Q99558); experiment: Inhibition of auto-phosphorylation of recombinant human NF-kappaB-inducing kinase (NIK/MAP3K14) activity (AlphaScreen); format: biochemical; conditions: averaged values over all measurements on all batches, 25 microM ATP
Method: Inhibition of Auto-Phosphorylation of Recombinant Human NF-kappaB-Inducing Kinase ([…]) Activity (AlphaScreen®)
NIK/MAP3K14 auto-phosphorylation activity was measured using the AlphaScreen® (αscreen) format (Perkin Elmer). All compounds tested were dissolved in dimethyl sulfoxide (DMSO) and further dilutions were made in assay buffer. Final DMSO concentration was […] in assays. Assay buffer was 50 mM Tris pH 7.5 containing 1 mM EGTA (ethylene glycol tetraacetic acid), 1 mM DTT (dithiothreitol), 0.1 mM Na3VO4, 5 mM MgCl2, 0.01% Tween® 20. Assays were carried out in 384 well Alphaplates (Perkin Elmer). Incubations consisted of compound, 25 microM Adenosine-5′-triphosphate (ATP), and 0.2 nM NIK/MAP3K14. Incubations were initiated by addition of GST-tagged NIK/MAP3K14 enzyme, carried out for 1 h at 25° C. and terminated by addition of stop buffer containing anti-phospho-[…] Ser176/180 antibody. Protein A Acceptor and Glutathione-Donor beads were added before reading using an EnVision® Multilabel Plate Reader (Perkin Elmer). Signal obtained in the wells containing blank samples was subtracted from all other wells and IC50's were determined by fitting a sigmoidal curve to % inhibition of control versus Log10 compound concentration.

[2] = tested on: P-IKKα levels in L363 cells; experiment: Effect of compounds on P-IKKα levels in L363 (NIK translocated multiple myeloma) cells; format: cell-based, human; conditions: Homo sapiens, L-363, 2 h, 2 hr treatment, averaged values, read-out: Inhibition of pIKKα_L-363 (IC50 (nM))
Method: Effect of Compounds on P-IKKα Levels in L363 (NIK Translocated Multiple Myeloma) Cells
All compounds tested were dissolved in DMSO and further dilutions were made in culture medium. Final DMSO concentration was 1% (v/v) in cell assays. The human L363 cells (ATCC) were cultured in RPMI 1640 medium supplemented with GlutaMax and 10% fetal calf serum (PAA). Cells were routinely maintained at densities of 0.2×10^6 cells per ml—1×10^6 cells per ml at 37° C. in a humidified 5% CO2 atmosphere. Cells were passaged twice a week splitting back to obtain the low density. Cells were seeded in 96 well plates (Nunc 167008) at 2×10^6 per ml media in a volume of 75 μl per well plus 25 μl 1 μg/ml recombinant human B-cell activating factor (BAFF/BLyS/TNFSF13B). Seeded cells were incubated at 37° C. in a humidified 5% CO2 atmosphere for 24 hr. Drugs and/or solvents were added (20 μl) to a final volume of 120 μl. Following 2 hr treatment plates were removed from the incubator and cell lysis was achieved by the addition of 30 μl 5× lysis buffer followed by shaking on a plate shaker at 4° C. for 10 min. At the end of this incubation lysed cells were centrifuged at 800×g for 20 min at 4° C. and the lysate was assessed for P-IKKα levels by sandwich immuno-assay carried out in anti-rabbit antibody coated Mesoscale plates. Within an experiment, the results for each treatment were the mean of 2 replicate wells. For initial screening purposes, compounds were tested using an 8 point dilution curve (serial 1:3 dilutions). For each experiment, controls (containing MG132 and BAFF but no test drug) and a blank incubation (containing MG132 and BAFF and 10 μM ADS125117, a test concentration known to give full inhibition) were run in parallel. The blank incubation value was subtracted from all control and sample values. To determine the IC50 a sigmoidal curve was fitted to the plot of % inhibition of control P-IKKα levels versus Log10 compound concentration.

[3] = tested on: JJN-3 cells; experiment: Antiproliferative activity on JJN-3 (NIK translocated) multiple myeloma cells (CellTiter-Glo); format: cell-based, human; conditions: JJN-3 (NIK translocated) cells, 96 hr treatment, averaged values, read-out: JJN-3 Proliferation inhibition (IC50 (nM))
Method: (§1) Determination of Antiproliferative Activity on JJN-3 (NIK Translocated) and KMS12-BM (NIK WT) Multiple Myeloma Cells
(§2) All compounds tested were dissolved in DMSO and further dilutions were made in culture medium. Final DMSO concentration was 0.3% (v/v) in cell proliferation assays. Viability was assessed using CellTiter-Glo cell viability assay kit (Promega). The human JJN-3 and KMS12-BM cells (DSMZ) were cultured in RPMI 1640 medium supplemented with 2 mM L-glutamine, and 10% fetal calf serum (PAA). Cells were routinely kept as suspension cells at 37° C. in a humidified 5% CO2 atmosphere. Cells were passaged at a seeding density of 0.2×10^6/ml twice a week. Cells were seeded in black tissue culture treated 96-well plates (Perkin Elmer). Densities used for plating ranged from 15000 (JJN3) to 20000 (KMS12BM) cells per well in a total volume of […]. Drugs and/or solvents were added (15 μl) to a final volume of 150 μl. Following 96 hr of treatment, plates were removed from the incubator and allowed to equilibrate to room temperature for approx 10 min. 75 μl CellTiter-Glo reagent was added to each well that was then covered (Perkin Elmer Topseal) and shaken on plate shaker for 10 min. Luminescence was measured on a HTS Topcount (Perkin Elmer). Within an experiment, the results for each treatment were the mean of 2 replicate wells. For initial screening purposes, compounds were tested using a 9 point dilution curve (serial 1:3 dilutions). For each experiment, controls (containing no drug) and a blank incubation (containing cells read at the time of compound addition) were run in parallel. The blank value was subtracted from all control and sample values. For each sample, the mean value for cell growth (in relative light units) was expressed as a percentage of the mean value for cell growth of the control.

[4] = tested on: KMS12-BM cells; experiment: Antiproliferative activity on KMS12-BM (NIK WT) multiple myeloma cells (CellTiter-Glo); format: cell-based, human; conditions: 96 hr treatment, averaged values, read-out: KMS-12 Proliferation inhibition (IC50 (nM))
Method: as §1, §2

Sequence of NIK/MAP3K14 (Q99558 whole entry): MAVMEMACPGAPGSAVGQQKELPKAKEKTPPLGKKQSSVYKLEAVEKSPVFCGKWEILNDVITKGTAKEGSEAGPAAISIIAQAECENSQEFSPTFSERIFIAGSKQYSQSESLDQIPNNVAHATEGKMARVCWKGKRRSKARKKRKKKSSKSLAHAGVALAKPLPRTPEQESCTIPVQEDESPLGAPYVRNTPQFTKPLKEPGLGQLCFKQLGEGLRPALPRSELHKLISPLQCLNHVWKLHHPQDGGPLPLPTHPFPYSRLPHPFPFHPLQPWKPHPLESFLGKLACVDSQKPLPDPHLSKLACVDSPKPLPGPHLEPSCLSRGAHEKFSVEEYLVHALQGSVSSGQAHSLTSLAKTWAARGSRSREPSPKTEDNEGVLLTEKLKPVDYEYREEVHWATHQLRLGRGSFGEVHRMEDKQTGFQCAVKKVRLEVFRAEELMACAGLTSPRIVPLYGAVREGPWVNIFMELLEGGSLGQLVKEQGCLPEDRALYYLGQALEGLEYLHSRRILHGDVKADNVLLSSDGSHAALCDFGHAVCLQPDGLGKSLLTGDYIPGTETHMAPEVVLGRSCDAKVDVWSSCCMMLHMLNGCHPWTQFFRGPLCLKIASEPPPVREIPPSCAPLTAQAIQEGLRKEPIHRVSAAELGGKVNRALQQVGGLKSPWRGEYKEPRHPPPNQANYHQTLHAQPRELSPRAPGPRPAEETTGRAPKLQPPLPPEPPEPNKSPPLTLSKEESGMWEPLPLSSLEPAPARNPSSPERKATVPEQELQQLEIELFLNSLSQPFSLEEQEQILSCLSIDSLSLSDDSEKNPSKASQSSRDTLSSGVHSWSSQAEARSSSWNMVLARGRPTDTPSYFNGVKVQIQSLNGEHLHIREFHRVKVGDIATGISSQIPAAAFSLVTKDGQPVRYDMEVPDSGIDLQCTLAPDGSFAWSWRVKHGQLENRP

Compound	IC50 [1] [nM]	IC50 [2] [nM]	IC50 ([3]; Homo sapiens, JJN-3, 96 h) [nM]	IC50 ([4]; Homo sapiens, KMS-12-BM, 96 h) [nM]	IC50 [3] [nM]	IC50 [4] [nM]
CC(C)(O)Cn1ccc2c(Nc3nccc(-c4cc(C#N)c5c(c4)C(C)(C)CN5)n3)cc(Cl)cc21 [Compound 2c]	87.1	78	123	~6030	–	–
CN1CCn2ncc(Nc3nccc(-c4cc(C#N)c5c(c4)[C@@](C)(CO)CN5)n3)c2C1=O [Compound 3b]	1	3	91	> 10000	–	–
C[C@]1(CO)CNc2c(C#N)cc(-c3ccnc(Nc4cnn5c4COCC5)n3)cc21 [Compound 12b]	1.5	4	251	~549	–	–
CN1CCn2nc(Nc3nccc(-c4cc(C#N)c5c(c4)[C@@](C)(CO)CN5)n3)cc2C1=O [Compound 13b]	2	29	457	~1860	–	–
C[C@]1(CO)CNc2c(C#N)cc(-c3ccnc(Nc4cnn5c4OCCC5)n3)cc21 [Compound 14b]	2	6	155	3980	–	–
CN1CCn2ncc(Nc3nccc(-c4cc(C#N)c5c(c4)[C@@](C)(CO)CN5)n3)c2C1 [Compound 15b]	3.5	11	200	~4470	–	–
CC(C)N1CCn2ncc(Nc3nccc(-c4cc(C#N)c5c(c4)[C@@](C)(CO)CN5)n3)c2C1=O [Compound 17b]	3	3	309	> 10000	–	–
CN(C)C1COc2c(cc(Cl)cc2Nc2nccc(-c3cc(C#N)c4c(c3)[C@@](C)(CO)CN4)n2)C1 (stereo partly shown) [Compound 18]	4.1	16	–	–	1	9
CC(C)N1CCn2ncc(Nc3nccc(-c4cc(C#N)c5c(c4)[C@@](C)(CO)CN5)n3)c2C1 [Compound 18b]	6.2	7	288	~5500	–	–
COC[C@@H]1Cn2ncc(Nc3nccc(-c4cc(C#N)c5c(c4)[C@@](C)(CO)CN5)n3)c2O1 [Compound 19b]	11.7	19	316	~5500	–	–
C[C@]1(CO)CNc2c(C#N)cc(-c3ccnc(Nc4cc5c(nc4CCC4CC4)CCOC5)n3)cc21 [Compound 21]	3	21	81	3890	–	–
Cc1cc2c(cc1Nc1nccc(-c3cc(C#N)c4c(c3)[C@@](C)(CO)CN4)n1)CCN(C)CC2 [Compound 23]	4.8	~79	162	~550	–	–
COc1cc2c(cc1Nc1nccc(-c3cc(C#N)c4c(c3)[C@@](C)(CO)CN4)n1)CCN(C)CC2 [Compound 24]	3	~74	~214	~288	–	–
CC1(C)CCOc2c(Nc3nccc(-c4cc(C#N)c5c(c4)[C@@](C)(CO)CN5)n3)cnn21 [Compound 24b]	4.9	28	676	~5890	–	–
COc1nc2c(cc1Nc1nccc(-c3cc(C#N)c4c(c3)[C@@](C)(CO)CN4)n1)COCC2 [Compound 25]	1.7	10	174	> 10000	–	–
CC1(C)CCn2ncc(Nc3nccc(-c4cc(C#N)c5c(c4)[C@@](C)(CO)CN5)n3)c2O1 [Compound 25b]	8.1	7	3020	> 10000	–	–
C[C@]1(CO)CNc2c(C#N)cc(-c3ccnc(Nc4cnn5c4C(=O)N(Cc4ccccc4)CC5)n3)cc21 [Compound 26b]	9.5	25	1700	~9550	–	–
CC(C)CN1CCn2ncc(Nc3nccc(-c4cc(C#N)c5c(c4)[C@@](C)(CO)CN5)n3)c2C1=O [Compound 27b]	4.47	13	1580	> 10000	–	–
Cc1nc2c(cc1Nc1nccc(-c3cc(C#N)c4c(c3)[C@@](C)(CO)CN4)n1)COCC2 [Compound 28]	1.1	14	851	> 10000	–	–
CC(C)N1CCCn2ncc(Nc3nccc(-c4cc(C#N)c5c(c4)[C@@](C)(CO)CN5)n3)c2C1=O [Compound 28b]	17	251	3390	> 10000	–	–
CN1CCc2ncc(Nc3nccc(-c4cc(C#N)c5c(c4)[C@@](C)(CO)CN5)n3)cc2C1 [Compound 29]	3.4	16	~27	51	–	–
CN1CCc2cc(Nc3nccc(-c4cc(C#N)c5c(c4)[C@@](C)(CO)CN5)n3)ccc2C1 [Compound 30]	0.8	2	4	10	–	–
CN1CCc2ccc(Nc3nccc(-c4cc(C#N)c5c(c4)[C@@](C)(CO)CN5)n3)cc2C1 [Compound 31]	1.4	2	4	~31	–	–
COc1nc2c(cc1Nc1nccc(-c3cc(C#N)c4c(c3)[C@@](C)(CO)CN4)n1)CN(C)CC2 [Compound 32]	1.7	10	195	525	–	–
COCCCc1nc2c(cc1Nc1nccc(-c3cc(C#N)c4c(c3)[C@@](C)(CO)CN4)n1)COCC2 [Compound 33]	8.1	17	776	> 10000	–	–
C[C@]1(CO)CNc2c(C#N)cc(-c3ccnc(Nc4cc5c(nc4OCC4CC4)CCOC5)n3)cc21 [Compound 34]	10.5	23	1740	> 10000	–	–
CC1(CO)CNc2c(C#N)cc(-c3ccnc(Nc4cc(Cl)cc5c4OCC5)n3)cc21 (stereo not shown) [Compound 41]	11.8	3	138	> 10000	–	–
CNC(=O)c1cc(Nc2nccc(-c3cc(C#N)c4c(c3)[C@@](C)(CO)CN4)n2)c(=O)n2c1CCC2 [Compound 44]	4.5	35	> 10000	> 10000	–	–
